# Values of other authors, collected in PMC9516332 (Frontiers in Oncology, 2022).
# Read-outs that look alike come from different tables or passages of the source.
# Key:
# Settings in all cases: cited from earlier work
# [1] = molecular target: T1, panel of 255 wild-type kinases (Homo sapiens, UniProt O00418)
# T1 sequence (O00418 1-725): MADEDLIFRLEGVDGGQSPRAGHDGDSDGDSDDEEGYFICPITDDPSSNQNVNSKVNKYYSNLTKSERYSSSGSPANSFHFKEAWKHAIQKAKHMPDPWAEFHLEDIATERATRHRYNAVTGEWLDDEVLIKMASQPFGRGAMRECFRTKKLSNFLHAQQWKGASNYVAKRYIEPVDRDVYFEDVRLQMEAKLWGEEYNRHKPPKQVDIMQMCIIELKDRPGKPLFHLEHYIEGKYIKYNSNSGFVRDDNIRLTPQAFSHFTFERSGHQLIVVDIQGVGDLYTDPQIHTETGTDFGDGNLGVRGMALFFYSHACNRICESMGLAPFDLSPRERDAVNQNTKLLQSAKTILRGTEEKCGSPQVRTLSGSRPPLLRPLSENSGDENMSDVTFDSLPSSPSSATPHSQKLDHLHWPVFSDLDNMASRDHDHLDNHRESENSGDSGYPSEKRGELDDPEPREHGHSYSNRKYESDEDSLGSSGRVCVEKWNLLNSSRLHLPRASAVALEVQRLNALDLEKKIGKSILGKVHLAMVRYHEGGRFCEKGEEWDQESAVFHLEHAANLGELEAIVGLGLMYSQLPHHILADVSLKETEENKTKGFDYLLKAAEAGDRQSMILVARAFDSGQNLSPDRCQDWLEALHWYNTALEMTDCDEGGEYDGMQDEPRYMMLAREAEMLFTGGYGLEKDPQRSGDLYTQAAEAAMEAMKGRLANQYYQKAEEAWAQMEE
# [2] = molecular target: panel of 255 wild-type kinases (Homo sapiens, UniProt P05771)
# [3] = molecular target: panel of 255 wild-type kinases (Homo sapiens, UniProt P12931)
# [4] = molecular target: T2, panel of 255 wild-type kinases (Homo sapiens, UniProt O14965)
# T2 sequence (O14965 1-403): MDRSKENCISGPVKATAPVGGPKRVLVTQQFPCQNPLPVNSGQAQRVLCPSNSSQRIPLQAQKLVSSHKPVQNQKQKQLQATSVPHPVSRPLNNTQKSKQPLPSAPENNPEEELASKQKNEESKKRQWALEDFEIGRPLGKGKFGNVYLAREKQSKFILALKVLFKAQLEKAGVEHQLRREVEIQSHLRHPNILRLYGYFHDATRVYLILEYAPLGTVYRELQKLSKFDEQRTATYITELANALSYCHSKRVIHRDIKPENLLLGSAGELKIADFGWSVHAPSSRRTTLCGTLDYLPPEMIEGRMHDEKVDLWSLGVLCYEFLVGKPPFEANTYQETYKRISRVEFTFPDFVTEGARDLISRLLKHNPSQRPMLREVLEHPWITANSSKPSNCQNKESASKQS
# [5] = molecular target: panel of 255 wild-type kinases (Homo sapiens, UniProt Q13464)
# [6] = molecular target: panel of 255 wild-type kinases (Homo sapiens, UniProt Q13177)
# [7] = molecular target: T3, panel of 255 wild-type kinases (Homo sapiens, UniProt P36888)
# T3 sequence (P36888 27-993): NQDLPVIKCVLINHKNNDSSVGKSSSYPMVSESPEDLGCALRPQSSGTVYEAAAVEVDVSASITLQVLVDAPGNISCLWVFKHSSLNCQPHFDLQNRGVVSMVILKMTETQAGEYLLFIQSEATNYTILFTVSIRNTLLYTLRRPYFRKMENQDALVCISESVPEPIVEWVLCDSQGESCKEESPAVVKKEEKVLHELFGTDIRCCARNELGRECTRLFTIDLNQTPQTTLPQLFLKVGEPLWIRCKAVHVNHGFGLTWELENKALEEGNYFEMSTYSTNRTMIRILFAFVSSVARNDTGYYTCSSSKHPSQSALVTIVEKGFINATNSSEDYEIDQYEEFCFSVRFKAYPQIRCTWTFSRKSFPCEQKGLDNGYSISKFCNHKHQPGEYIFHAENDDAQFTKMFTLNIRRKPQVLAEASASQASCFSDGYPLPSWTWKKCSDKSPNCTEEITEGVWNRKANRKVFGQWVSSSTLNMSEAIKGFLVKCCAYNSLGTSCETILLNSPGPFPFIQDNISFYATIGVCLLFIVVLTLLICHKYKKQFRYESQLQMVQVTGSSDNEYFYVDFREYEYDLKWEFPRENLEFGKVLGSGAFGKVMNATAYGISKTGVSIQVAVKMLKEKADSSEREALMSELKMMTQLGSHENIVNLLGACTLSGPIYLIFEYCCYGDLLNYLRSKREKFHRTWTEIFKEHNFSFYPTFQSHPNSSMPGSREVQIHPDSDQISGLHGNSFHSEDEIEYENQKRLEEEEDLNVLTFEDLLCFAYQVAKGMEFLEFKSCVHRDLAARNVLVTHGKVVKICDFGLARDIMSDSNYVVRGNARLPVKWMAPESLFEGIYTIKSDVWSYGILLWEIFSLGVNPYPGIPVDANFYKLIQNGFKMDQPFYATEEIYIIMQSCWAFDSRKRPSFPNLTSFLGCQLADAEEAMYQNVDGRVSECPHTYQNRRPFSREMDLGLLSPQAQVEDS
# [8] = molecular target: panel of 255 wild-type kinases (Homo sapiens, UniProt Q04759)
SMILES,"%-inhibition at 1 µmol/L, EEF2K ([1]; kinase EEF2K, 1 µmol/L single concentration, ref DOI: 10.1158/1535-7163.MCT-18-0877) [%]","%-inhibition at 1 µmol/L, PKCβ1 ([2]; kinase PKCβ1, 1 µmol/L single concentration, ref DOI: 10.1158/1535-7163.MCT-18-0877) [%]","%-inhibition at 1 µmol/L, SRC ([3]; kinase SRC, 1 µmol/L single concentration, ref DOI: 10.1158/1535-7163.MCT-18-0877) [%]","%-inhibition AurA ([4]; AurA kinase assay, 1 µmol/L single concentration, ref DOI: 10.1158/1535-7163.MCT-18-0877) [%]","%-inhibition AurA/TPX2 ([4]; AurA/TPX2 kinase assay, 1 µmol/L single concentration, ref DOI: 10.1158/1535-7163.MCT-18-0877) [%]","%-inhibition at 1 µmol/L, ROCK1 ([5]; kinase ROCK1, 1 µmol/L single concentration, ref DOI: 10.1158/1535-7163.MCT-18-0877) [%]","%-inhibition, PAK2 ([6]; PAK2, 1 µmol/L single concentration, ref DOI: 10.1158/1535-7163.MCT-18-0877) [%]","%-inhibition at 1 µmol/L, FLT3 ([7]; kinase FLT3, 1 µmol/L single concentration, ref DOI: 10.1158/1535-7163.MCT-18-0877) [%]","%-inhibition at 1 µmol/L, PKCθ ([8]; kinase PKCθ, 1 µmol/L single concentration, ref DOI: 10.1158/1535-7163.MCT-18-0877) [%]","%-inhibition at 1 µmol/L, EEF2K [1] [%]","%-inhibition at 1 µmol/L, PKCβ1 [2] [%]","%-inhibition at 1 µmol/L, SRC [3] [%]",%-inhibition AurA [4] [%],%-inhibition AurA/TPX2 [4] [%],"%-inhibition at 1 µmol/L, ROCK1 [5] [%]","%-inhibition, PAK2 [6] [%]","%-inhibition at 1 µmol/L, FLT3 [7] [%]","%-inhibition at 1 µmol/L, PKCθ [8] [%]"
C=CC(=O)Nc1cc(Nc2nccc(-c3cn(C)c4ccccc34)n2)c(OC)cc1N(C)CCN(C)C [osimertinib],-0.355,9,9,9,7.38,-5,-14,84,10,,,,,,,,,
COc1cc(N2CCC(N3CCN(C)CC3)CC2)ccc1Nc1ncc(Cl)c(Nc2ccccc2P(C)(C)=O)n1 [brigatinib],,,,,,,,,,2.53,7.42,65,79,74,25,16,101,29
